Assay results from patent EP0580185A1, “Medicaments” (THE WELLCOME FOUNDATION LIMITED, priority 1988, dated 1990).
Read-outs that look alike come from different tables or passages of the source.

How the values were obtained:
Pneumocystis carinii = assay: Prophylaxis of Pneumocystis carinii pneumonitis in dexamethasone-treated rats, lung histopathology score; type: in vivo; details: for No.with P. carinii Pneumonitis Total: per rats evaluated
Protocol: A: 2-[trans-4-(4-chlorophenyl)cyclohexyl]-3-hydroxy-1,4-naphthoquinone B: 2-[cis-4-(4-chlorophenyl)cyclohexyl]-3-hydroxy-1,4-naphthoquinone C: 2-[4-(4-chlorophenyl)cyclohexyl]-3-chloro-1,4-naphthoquinone D: 2-(4-t-butylcyclohexyl)-3-hydroxy-1,4-naphthoquinone E: 2-(4-t-butylcyclohexylmethyl)-3-hydroxy-1,4-naphthoquinone a) Prophylaxis Groups of 10 rats were treated with dexamethasone to allow latent Pneumocystis carinii infection to develop. Tetracycline was also administered to protect against bacterial infections. Test compound A was administered, by gavage, from day 4 of the dexamethasone treatment, at a dose of 100 mg/kg/day. Two control groups of rats were treated with dexamethasone and tetracycline only. A further group of rats was given cotrimoxazole (trimethoprim + sulphamethoxazole, 50 + 250 mg/kg/day, orally) in place of the test compound. At the end of the test period the animals were sacrificed and autopsies carried out. The lungs were removed and the right lung bisected. An imprint was made onto microscope slides and stained with toluidine blue. One half of the lung was placed in formalin, processed in paraffin blocks, sectioned and stained by the Gomori methanamine silver nitrate method. After autopsy the extent of P.carinii pneumonitis was scored under coded study as none if no organism seen; 1+ if P.carinii cysts seen sparsely distributed with less than one per 25 high power field (h.p.f.); 2+ if focal areas of P.carinii pneumonitis surrounded by 10 to 25 h.p.f of normal lung and 3+ if lung diffusely and extensively involved with organisms in almost all h.p.f.s.
b) Prophylaxis A further series of tests was carried out using the same general method as described above. Test compound A was administered at various dose levels, by gavage and in the diet.

Plasmodium Falciparum = assay: Activity against Plasmodium falciparum in vitro, G-3H-hypoxanthine incorporation; type: cell-based; details: cultures incubated for 48 hours, RPMI 1640 medium + 10% human plasma, read-out: In vitro IC₅₀
Protocol: The test method was modification of that described by Desjardins et al., Antimicrob. Agents and Chemotherapy 1979, 16, 710-718. Compounds were dissolved in ethanol at a concentration of 4.8x10⁻³M and dilutions down to 1x10⁻⁴M were made. The drug solutions were serially diluted using RPMI 1640 medium + 10% human plasma in microtitration plates. Parasitised and fresh red blood cells were added, together with G-³H-hypoxanthine, in RPMI 1640 medium + 10% human plasma and the cultures incubated for 48 hours. Cultures were then harvested, the particulate contents collected on a glass fibre filter paper and washed copiously with water. The filter papers were dried and the radioactivity measured using a scintillation counter. Infected untreated and uninfected untreated cultures were included as controls.

Plasmodium yoelii = assay: Activity against Plasmodium yoelii in vivo, tail-blood smears at 96 hours; parameters: species or system mice; details: for ED50: Plasmodium yoelii, in Mus musculus, 96 h
Protocol: The naphthoquinone was suspended in 0.25% (w/v) celacol in water by milling for 16-24 hours at 26°C. The suspensions were subsequently serially diluted with 0.25% (w/v) celacol in water. At time 0, 0.1 ml of a suspension of 5x10⁶ P.yoelii-parasitised red blood cells/ml of phosphate saline were injected intravenously into 15-20 g mice through a tail vein. Groups of 5 mice per treatment were dosed orally at times 6, 22, 30, 46, 54, 70 and 78 hours with 0.2 ml of the drug suspension. The compound of Example 4 was also administered intravenously. Tail-blood smears were taken at 96 hours, stained with Giemsa and the percentage of red blood cells infected determined and compared to untreated, infected controls. Percent inhibition was correllated with dose to provide ED values.

[1] = Water-solubility compared with the parent compound; type: physicochemical; details: as compared with the parent compound of formula (V)
[2] = test system: Pneumocystis carinii pneumonia; details: cited from earlier work
[3] = 100 mg per kg/day, gavage, group of 10 rats
[4] = 100 mg per kg/day, gavage, group of 15 rats
[5] = 100 mg/kg/day by gavage from day 4 of dexamethasone treatment
[6] = po, dosed orally at 6, 22, 30, 46, 54, 70 and 78 hours, read-out: In vivo ED₅₀ oral

O=C1C(O)=C([C@H]2CC[C@H](c3ccc(Cl)cc3)CC2)C(=O)c2ccccc21 [Example 1C, 2-[trans-4-(4-Chlorophenyl)cyclohexyl]-3-hydroxy-1,4-naphthoquinone]
No.with P. carinii Pneumonitis 1+ (Pneumocystis carinii; 10 mg per kg/day, gavage): 1 | No.with P. carinii Pneumonitis 2+ (Pneumocystis carinii; 10 mg per kg/day, gavage): 0 | No.with P. carinii Pneumonitis 3+ (Pneumocystis carinii; 10 mg per kg/day, gavage): 8 | No.with P. carinii Pneumonitis None (Pneumocystis carinii; 10 mg per kg/day, gavage): 1 | No.with P. carinii Pneumonitis Total (Pneumocystis carinii; 10 mg per kg/day, gavage): 9/10 | No.with P. carinii Pneumonitis 1+ (Pneumocystis carinii; 25 mg per kg/day, gavage): 2 | No.with P. carinii Pneumonitis 2+ (Pneumocystis carinii; 25 mg per kg/day, gavage): 1 | No.with P. carinii Pneumonitis 3+ (Pneumocystis carinii; 25 mg per kg/day, gavage): 4 | No.with P. carinii Pneumonitis None (Pneumocystis carinii; 25 mg per kg/day, gavage): 1 | No.with P. carinii Pneumonitis Total (Pneumocystis carinii; 25 mg per kg/day, gavage): 7/8 | No.with P. carinii Pneumonitis 1+ (Pneumocystis carinii; 50 mg per kg/day, gavage): 0 | No.with P. carinii Pneumonitis 2+ (Pneumocystis carinii; 50 mg per kg/day, gavage): 1 | No.with P. carinii Pneumonitis 3+ (Pneumocystis carinii; 50 mg per kg/day, gavage): 1 | No.with P. carinii Pneumonitis None (Pneumocystis carinii; 50 mg per kg/day, gavage): 7 | No.with P. carinii Pneumonitis Total (Pneumocystis carinii; 50 mg per kg/day, gavage): 2/9 | No.with P. carinii Pneumonitis 1+ (Pneumocystis carinii; [3]): 1 | No.with P. carinii Pneumonitis 2+ (Pneumocystis carinii; [3]): 0 | No.with P. carinii Pneumonitis 3+ (Pneumocystis carinii; [3]): 0 | No.with P. carinii Pneumonitis None (Pneumocystis carinii; [3]): 8 | No.with P. carinii Pneumonitis Total (Pneumocystis carinii; [3]): 1/9 | No.with P. carinii Pneumonitis 1+ (Pneumocystis carinii; [4]): 0 | No.with P. carinii Pneumonitis 2+ (Pneumocystis carinii; [4]): 0 | No.with P. carinii Pneumonitis 3+ (Pneumocystis carinii; [4]): 0 | No.with P. carinii Pneumonitis None (Pneumocystis carinii; [4]): 9 | No.with P. carinii Pneumonitis Total (Pneumocystis carinii; [4]): 0/9 | No.with P. carinii Pneumonitis 1+ (Pneumocystis carinii; 100 mg per kg/day, rations): 0 | No.with P. carinii Pneumonitis 2+ (Pneumocystis carinii; 100 mg per kg/day, rations): 0 | No.with P. carinii Pneumonitis 3+ (Pneumocystis carinii; 100 mg per kg/day, rations): 0 | No.with P. carinii Pneumonitis None (Pneumocystis carinii; 100 mg per kg/day, rations): 10 | No.with P. carinii Pneumonitis Total (Pneumocystis carinii; 100 mg per kg/day, rations): 0/10 | No of rats with P.carinii Pneumonitis 1+ (Pneumocystis carinii; [5]): 0 | No of rats with P.carinii Pneumonitis 2+ (Pneumocystis carinii; [5]): 0 | No of rats with P.carinii Pneumonitis 3+ (Pneumocystis carinii; [5]): 0 | No of rats with P.carinii Pneumonitis None (Pneumocystis carinii; [5]): 8 | No of rats with PCP/No of rats tested (Pneumocystis carinii; [5]): 0/8 | No.with P. carinii Pneumonitis 1+ (Pneumocystis carinii; 200 mg per kg/day, rations): 0 | No.with P. carinii Pneumonitis 2+ (Pneumocystis carinii; 200 mg per kg/day, rations): 0 | No.with P. carinii Pneumonitis 3+ (Pneumocystis carinii; 200 mg per kg/day, rations): 0 | No.with P. carinii Pneumonitis None (Pneumocystis carinii; 200 mg per kg/day, rations, Gomori-Grocott stain): 9 | No.with P. carinii Pneumonitis Total (Pneumocystis carinii; 200 mg per kg/day, rations): 0/9 | IC50 (Plasmodium Falciparum): 2 nM | ED50 (Plasmodium yoelii; [6]): 0.03 mg/kg

COC1=C([C@H]2CC[C@H](c3ccc(Cl)cc3)CC2)C(=O)c2ccccc2C1=O [Example 2, 2-Methoxy-3-[trans-4-(4-chlorophenyl)cyclohexyl]-1,4-naphthoquinone]
IC50 (Plasmodium Falciparum): 360 nM | ED50 (Plasmodium yoelii; [6]): 5.8 mg/kg

NC1=C([C@H]2CC[C@H](c3ccc(Cl)cc3)CC2)C(=O)c2ccccc2C1=O [Example 3, 2-Amino-3-[trans-4-(4-chlorophenyl)cyclohexyl]-1,4-naphthoquinone]
IC50 (Plasmodium Falciparum): 1140 nM | ED50 (Plasmodium yoelii; [6]): 1.26 mg/kg

CN(C)CCCOC1=C([C@H]2CC[C@H](c3ccc(Cl)cc3)CC2)C(=O)c2ccccc2C1=O.Cl [Example 4, 2-[trans-4-(4-Chlorophenyl)cyclohexyl]-3-(3-dimethylaminopropoxy)-1,4-naphthoquinone hydrochloride]
IC50 (Plasmodium Falciparum): 59 nM | ED50 (Plasmodium yoelii; iv, administered intravenously, read-out: In vivo ED₅₀ i.v.): 2.08 mg/kg | ED50 (Plasmodium yoelii; [6]): 0.61 mg/kg | In vivo ED₅₀ oral (Plasmodium yoelii; dosed orally at 6, 22, 30, 46, 54, 70 and 78 hours, hydrochloride, 5760 min): 0.68 mg/kg

CC(=O)OC1=C([C@H]2CC[C@H](c3ccc(Cl)cc3)CC2)C(=O)c2ccccc2C1=O [Example 5, 2-Acetoxy-3-[trans-4-(4-chlorophenyl)cyclohexyl]-1,4-naphthoquinone]
IC50 (Plasmodium Falciparum): 68 nM | ED50 (Plasmodium yoelii; [6]): 0.12 mg/kg | water-solubility [1]: improved

CCOC(=O)OC1=C([C@H]2CC[C@H](c3ccc(Cl)cc3)CC2)C(=O)c2ccccc2C1=O [Example 6, 2-Ethoxycarbonyloxy-3-[trans-4-(4-chlorophenyl)cyclohexyl]-1,4 naphthoquinone]
IC50 (Plasmodium Falciparum): 80 nM | ED50 (Plasmodium yoelii; [6]): 0.09 mg/kg

CN(C)c1ccc(C(=O)OC2=C([C@H]3CC[C@H](c4ccc(Cl)cc4)CC3)C(=O)c3ccccc3C2=O)cc1 [Example 7, 2-[trans-4-(4-Chlorophenyl)cyclohexyl]-3-(4-dimethylaminobenzoyloxy)-1,4-naphthoquinone]
IC50 (Plasmodium Falciparum): 220 nM | ED50 (Plasmodium yoelii; [6]): 0.12 mg/kg

N=C(N)c1ccc(OCCCCCOc2ccc(C(=N)N)cc2)cc1 [pentamidine]
incidence of adverse reactions ([2]; AIDS patients): around 50% | effective in AIDS patients ([2]; treatment of Pneumocystis carinii pneumonia): 50-70%
